Measurements: US11033609B2, “Cyclic acetylcholinesterase C-terminal peptide in the treatment or prevention of cancer or metastasis” (priority 2014, dated 2021)
Where a SMILES comes first, the peptide text is derived from it.

Legend:
Format in all cases: cell-based, human
H929 cells [1] = assay: Annexin V/propidium iodide in vitro apoptosis (cytotoxicity) assay; conditions: H929, 72 h
Description: (§1) The acute myeloid leukaemia (AML) KG1a cell line was maintained in RPMI medium (Invitrogen) supplemented with 100 units/ml penicillin, 100 μg/ml streptomycin and 20% foetal calf serum. The multiple myeloma (MM) cell line H929, the two breast cancer cell lines (MCF7 and MDA-MB-231), the MEC-1 cells and the primary chronic lymphocytic leukaemia cells were maintained in RPMI medium supplemented with 100 units/ml penicillin, 100 μg/ml streptomycin and 10% foetal calf serum. The media used contained acetylcholine but after the initial set of experiments an additional 100 μM of acetylcholine was added to the culture media. Cells were subsequently aliquoted (10^6 cells/ml) into 24-well plates and were incubated at 37° C. in a humidified 5% carbon dioxide atmosphere for 72 h in the presence of the peptides (T15, T30, NBP-14 and the combination of T30+NBP-14) at concentrations between 0.1 nM and 1 μM. In addition, control cultures were carried out to which no peptide was added. Cells were subsequently harvested by centrifugation and were analysed by flow cytometry using the Annexin V assay or were counted using a Vi-Cell XR cell viability counter (Beckman Coulter).
(§2) Cultured cells were harvested by centrifugation and then resuspended in 195 of calcium-rich buffer. Subsequently, 5 μl of Annexin V (eBiosciences) was added to the cell suspension and cells were incubated in the dark for 10 mins prior to washing. Cells were finally resuspended in 190 μl of calcium-rich buffer together with 10 μl of propidium iodide. Apoptosis was assessed by dual-colour immunofluorescent flow cytometry using an Accuri C6 flow cytometer and data were analysed using CFlow software (BD Biosciences).
(§3) The in vitro drug sensitivity was measured using the Annexin V/propidium iodide assay. Comparison of the effects of each peptide alone or in combination in the various cell lines and primary cells are shown below.

MEC-1 cells [2] = assay: as above; conditions: MEC-1, 72 h
Description: as §1, §2, §3

MCF7 cells [3] = assay: Transwell migration assay; conditions: for migration: MCF7, 1 μM peptide, 24 h transwell, vs no peptide control
Description: (§4) The acute myeloid leukaemia (AML) KG1a cell line was maintained in RPMI medium (Invitrogen) supplemented with 100 units/ml penicillin, 100 μg/ml streptomycin and 5% foetal calf serum. The multiple myeloma (MM) cell line JJN3, the two breast cancer cell lines (MCF7 and MDA-MB-231), the primary chronic lymphocytic leukaemia cells and normal B-lymphocytes were maintained in RPMI medium supplemented with 100 units/ml penicillin, 100 μg/ml streptomycin and 5% foetal calf serum. In addition, 100 μM of acetylcholine was added to the culture media to ensure that the availability of acetylcholine was not a limiting factor in these experiments.
(§5) In vitro migration assays were performed by using 6.0 μm pore size transwell migration plates (Costar, Corning, N.Y.). A total of 10^6 CLL cells in 500 μl of RPMI media were added to the upper chamber of the transwell insert. 100 ng/ml of CXCL12 was added to the baso-lateral chamber for all the cell types tested apart from KG1a cells. […] Instead, media containing 10% foetal calf serum was added to the baso-lateral chamber in these experiments. The plates were incubated for 24 h at 37° C. in 5% CO2 in the presence of the peptides (T15, T30, NBP-14 and the combination of T30+NBP-14) at concentrations between 0.1 nM and 10 μM. In addition, control cultures were carried out to which no peptide was added. Cells were subsequently harvested by centrifugation and were analysed by flow cytometry using an Accuri C6 flow cytometer (BD). None of the conditions tested induced significant cell death in the cultures. Migration of CLL cells was determined by counting cells that migrated to the lower (baso-lateral) chamber of the transwell plate and then expressed as a percentage of the total number of cells initially added to the upper (apical) chamber.

normal B-lymphocytes = assay: Transwell migration assay; conditions: normal B-lymphocytes from healthy volunteers, 1 μM peptide, 24 h transwell
Description: as §4, §5

KG1a cells [4] = assay: Transwell migration assay; conditions: for migration: 1 μM peptide, 24 h transwell, vs no peptide control
Description: as §4, §5

primary CLL cells [5] = assay: Transwell migration assay; conditions: for migration: primary CLL cells from 10 patients, 1 μM peptide, 24 h transwell
Description: as §4, §5

JJN3 cells [6] = assay: Transwell migration assay; conditions: for migration: JJN3, 1 μM peptide, 24 h transwell, vs no peptide control
Description: as §4, §5

MCF7 cells [7] = assay: Annexin V/propidium iodide in vitro apoptosis (cytotoxicity) assay; conditions: MCF7, 72 h, peptides 0.1 nM to 1 μM
Description: as §1, §2, §3

MDA-MB-231 cells [8] = assay: as above; conditions: MDA-MB-231, 72 h, peptides 0.1 nM to 1 μM
Description: as §1, §2, §3

KG1a cells [9] = assay: as above; conditions: 72 h
Description: as §1, §2, §3

primary CLL cells [10] = assay: as above; conditions: for apoptosis (cytotoxic effect): primary CLL cells derived from patients, 72 h
Description: as §1, §2, §3

JJN3 cells [11] = assay: In vitro proliferation; conditions: JJN3, concentrations of peptide >0.1 μM
[12] = test system: normal B- and T-lymphocytes; assay: Annexin V/propidium iodide apoptosis assay in normal cells; conditions: B- and T-lymphocytes from normal healthy volunteers
Description: as §2, §3
In order to assess the effects of the acetylcholinesterase-derived peptides on normal (non-malignant) cells, B- and T-lymphocytes were isolated from normal healthy volunteers (n=3).

MDA-MB-231 cells [13] = assay: Transwell migration assay; conditions: for migration: MDA-MB-231, 1 μM peptide, 24 h transwell, vs no peptide control
Description: as §4, §5

MCF7 cells [14] = assay: In vitro proliferation (Vi-Cell XR viable cell count); conditions: MCF7, concentrations above 0.1 μM
Description: as §1
(§6) Cultured cells were harvested by centrifugation and were then counted using a Vi-Cell XR cell viability counter. The number of viable cells in each culture was then expressed as a percentage of the viable cells in the control cultures (no peptide).

MDA-MB-231 cells [15] = assay: as above
Description: as §1, §6

KG1a cells [16] = assay: as above; conditions: concentrations above 0.1 μM
Description: as §1, §6

H929 cells [17] = assay: as above; conditions: H929, concentrations above 0.1 μM
Description: as §1, §6

MEC-1 cells [18] = assay: as above; conditions: MEC-1, concentrations above 0.1 μM
Description: as §1, §6

H929 cells [19] = assay: Transwell migration assay; conditions: H929, 1 μM NBP-14 vs baseline control
Description: as §5

MEC-1 cells [20] = assay: Transwell migration assay; conditions: MEC-1, 1 μM NBP-14 vs baseline control
Description: as §5

Compound	apoptosis (cytotoxic effect) (H929 cells [1])	apoptosis (cytotoxic effect) (MEC-1 cells [2])	migration (MCF7 cells [3])	migration (normal B-lymphocytes)	migration (KG1a cells [4])	migration (primary CLL cells [5])	migration (JJN3 cells [6])	apoptosis (cytotoxic effect) (KG1a cells [9])	apoptosis (cytotoxic effect) (primary CLL cells [10])	migration (MDA-MB-231 cells [13])	other results
Nc1nc(F)nc2c1ncn2[C@@H]1O[C@H](CO)[C@@H](O)[C@@H]1O [fludarabine, reference compound]	induced a dose-response	induced a dose-response									
T15 (NQFDHYSKQDRCSDL; listed as Homo sapiens) [reference compound]			Neither the T15 nor the T30 peptide showed a significant effect	no significant effect	did not alter	did not significantly altered	no significant effect				
CSCC[C@@H]1NC(=O)[C@H](Cc2ccc(O)cc2)NC(=O)[C@H](CO)NC(=O)[C@H](CO)NC(=O)[C@H](Cc2c[nH]c3ccccc23)NC(=O)[C@H](CCCNC(=N)N)NC(=O)[C@H](Cc2c[nH]cn2)NC(=O)[C@H](Cc2ccccc2)NC(=O)[C@H](CCC(=O)O)NC(=O)[C@H](C)NC(=O)[C@H](CCCCN)NC(=O)[C@H](Cc2c[nH]c3ccccc23)NC(=O)[C@H](Cc2c[nH]cn2)NC(=O)[C@H](C(C)C)NC1=O [NBP-14] (cyclo(AEFHRWSSYMVHWK))	modest apoptotic effects	modest apoptotic effects	little effect	significant reduction	significantly inhibited	significant reduction in migration	significant inhibited	modest apoptotic effects	evidence of dose-response at concentrations above 0.1 μM	significantly inhibited	apoptosis (cytotoxic effect) (MCF7 cells [7]): relatively increased sensitivity; apoptosis (cytotoxic effect) (MDA-MB-231 cells [8]): modest apoptotic effects; apoptosis (primary CLL cells [10]; primary CLL cells, at 1 μM): ~20%; proliferation (JJN3 cells [11]): anti-proliferative activity; toxicity in normal (non-malignant) cells [12]: lack of toxicity; migration (dose-response) (MCF7 cells [3]; MCF7, NBP-14 at concentrations ≥1 μM): failed to show a significant reduction in migration; migration (dose-response) (MDA-MB-231 cells [13]; MDA-MB-231, NBP-14 at concentrations ≥1 μM): significant decrease in migration; migration (dose-response) (KG1a cells [4]; NBP-14 at concentrations ≥1 μM): significant decrease in migration; sensitivity of primary CLL cells to anti-migratory effect compared with normal B-cells (primary CLL cells [5]; primary CLL cells vs normal B-cells, 24 h): significantly more sensitive; inhibition of migration compared with T30 (JJN3 cells [6]; JJN3, 1 μM, 24 h): significantly greater extent; migration (dose-response) (JJN3 cells [6]; JJN3, NBP-14 at concentrations ≥1 μM): significant decrease in migration; proliferation (MCF7 cells [14]): not as significant; proliferation (MDA-MB-231 cells [15]; MDA-MB-231, peptide concentrations above 0.1 μM, compared with T15 control peptide): significant reduction in proliferation; proliferation (KG1a cells [16]): reduced proliferation; proliferation (H929 cells [17]): reduced proliferation; proliferation (MEC-1 cells [18]): reduced proliferation; migration (H929 cells [19]): significant reduction in cell migration; migration (MEC-1 cells [20]): significant reduction in cell migration
Nc1ccn([C@@H]2O[C@H](CO)[C@@H](O)[C@@H]2O)c(=O)n1 [Ara-C, reference compound]								dose-response at concentrations above 0.1 μM			
Rituximab [reference compound]									more pronounced dose-response		
T30 (KAEFHRWSSYMVHWKNQFDHYSKQDRCSDL; listed as Homo sapiens) [reference compound]			Neither the T15 nor the T30 peptide showed a significant effect	no significant effect	did not alter	did not significantly altered	significant inhibited			significantly inhibited	inhibition of migration compared with NBP-14 (MDA-MB-231 cells [13]; MDA-MB-231, 1 μM, 24 h): significantly less effective; proliferation (MDA-MB-231 cells [15]; MDA-MB-231, sub-nanomolar concentrations): increased proliferation
